{
  "source": "patent US10238679B2",
  "about": "“Antitumor activity of multi-kinase inhibitors in colorectal cancer” (ENTRECHEM, S.L, priority 2014, dated 2019)",
  "key": {"HT29 cells [1]": {"tested_on": "HT29 cells", "experiment": "Apoptosis by Annexin V flow cytometry, HT29", "format": "cell-based", "settings": "48 hours", "protocol": "(§1) Cell cycle analyses and evaluation of apoptosis were performed by flow cytometry using propidium iodide and Annexin V, respectively.\n(§2) For apoptosis analyses, SW620 and HT29 cell monolayers were incubated in trypsin—EDTA, washed twice with cold PBS, and then resuspended in binding buffer (10 mM HEPES free acid [pH 7.4], 140 mM NaCl, 2.5 mM CaCl2) at a concentration of 1×10^6 cells per mL. A total of 1×10^5 cells were incubated for 15 minutes in the dark with Annexin V-APC (BD Biosciences) and propidium iodide (PI) staining solution (5 μL Annexin […], 10 μL of PI [[…] final concentration], 400 μL binding buffer)."}, "[2]": {"tested_on": "SW620, HT29 and SW48 cells", "experiment": "MTT metabolization, colorectal cancer cell lines (IC50 dose, line not specified)", "format": "cell-based", "settings": "dose used for time-response curve", "protocol": "(§3) Cell proliferation and growth experiments were carried out using 3-(4,5-dimethylthiazol-2-yl)-2,5-diphenyltetrazolium bromide (MTT) uptake assays, where MTT is reduced to purple formazan by the mitochondria of living cells. Increase in cell number is detected by augmented MTT metabolization, and decrease in cell number is reflected by a decrease. SW620, HT29 and SW48 cells were plated at a density of 1×10^4 cells per well in 24-well plates and cultured overnight in DMEM supplemented with 10% FBS. The cells were treated with the drug at different concentrations to plot the dose—response curves in all cancer cell lines using in the study. […] After treatment, each well was replaced with 250 μL of fresh medium containing MTT ([…]) and incubated for 1 hour. The medium was then removed and 500 μL of dimethyl sulfoxide was added to each well. The plate was agitated in the dark for 5 minutes to dissolve the MTT-formazan crystals. The absorbance of the samples was recorded at 562 nm in a multi-well plate reader (BMG labtech). Results were plotted as the mean values of quadruplicates from a representative experiment that was repeated at least two independent times."}, "[3]": {"tested_on": "pS6 and Src in HT29 cells", "experiment": "Phospho-kinase dot blot array and Western blot, HT29", "format": "cell-based", "settings": "500 nM, at 6 hours", "protocol": "(§4) Western-blot and phospho-array kits were used for evaluation of signaling intermediates. SW620 and HT29 cell lines were grown in DMEM 10% of FBS and at 70% confluence were treated with Formula (III) at 500 nM for 6, 12 and 24 hours. Cells were washed with phosphate-buffered saline (PBS) (137 mM NaCl, 2.7 mM KCl, 8 mM Na2HPO4, 1.5 mM KH2PO4) and lysed in ice-cold lysis buffer (20 mM Tris-HCl [pH 7.0], 140 mM NaCl, 50 mM EDTA, 10% glycerol, 1% Nonidet P-40, 1 μM pepstatin, 1 μg/mL aprotinin, 1 μg/mL leupeptin, 1 mM phenylmethyl sulfonyl fluoride, 1 mM sodium orthovanadate). Lysates were centrifuged at 10000 g at 4° C. for 10 minutes. The protein level in the supernatants was quantified using BCA protein assay (Sigma Aldrich). A total of 50 μg of protein of each sample was used for analysis. Samples were then boiled in electrophoresis sample buffer and placed on 6%-15% sodium dodecyl sulfate-polyacrylamide gel electrophoresis (SDS-PAGE) gels, depending on the molecular weight of the proteins to be analyzed. Briefly, after electrophoresis, proteins in gels were transferred to polyvinylidene difluoride membranes (Millipore Corporation). Membranes were blocked in Tris-buffered saline with Tween (TBST) (100 mM Tris [pH 7.5], 150 mM NaCl, 0.05% Tween 20) containing 1% of bovine serum albumin for 1 h and then incubated overnight with the corresponding antibody. […]"}, "[4]": {"tested_on": "a range of tyrosine and serine/threonine kinases", "settings": "biochemical assays; background statement; cited from earlier work"}, "SW620 cells [5]": {"tested_on": "SW620 cells", "experiment": "Apoptosis by Annexin V flow cytometry, SW620", "format": "cell-based", "settings": "48 hours", "protocol": "as §1, §2"}, "SW620 cells [6]": {"tested_on": "SW620 cells", "experiment": "Cell cycle analysis by flow cytometry (propidium iodide), SW620", "format": "cell-based", "settings": "500 nM, 24 h", "protocol": "as §1\n(§5) For cell cycle analyses, SW620 and HT29 cells were cultured in 100-mm culture dishes, grown to 70% confluence, and treated with 500 nM Formula (III) for 24 h. Cell monolayers were then incubated in trypsin—EDTA and resuspended in 1 mL of PBS. After three washes with PBS, the cell pellets were resuspended in ice cold 70% ethanol for 2 min and centrifuged 5 min at 1800 rpm. The cell pellets were treated with 1 mL of propidium iodide (PI) staining solution (PBS containing 50 μg/mL of PI, 0.5% Tween 20, 0.1 μg/mL RNase A) (BD Biosciencies) and incubated in the dark for 1 h. DNA content and cell cycle analyses were performed by using a FACS canto II flow cytometer and the CellQuest software (BD Biosciences)."}, "HT29 cells [7]": {"tested_on": "HT29 cells", "experiment": "MTT metabolization, HT29 cell proliferation", "format": "cell-based", "protocol": "(§6) SW620, HT29 and SW48 were grown in DMEM; this medium was purchased from Sigma Aldrich, supplemented with 10% FBS, 100 mU/mL penicillin, 100 μg/mL streptomycin and 2 mM L-glutamine, in a 5% CO2 atmosphere at 37° C. These colorectal cancer cell lines were obtained from the American Type Culture Collection Cell Biology Collection (ATCC) (Manassas, Va.). The medium was changed every 2 days.\nas §3\n(§7) Combination index values less than 1 indicate synergism, values equal to 1 indicate an additive effect, whereas values greater than 1 indicate antagonism. Combination index values from three independent experiments were generated."}, "SW620 cells [8]": {"tested_on": "SW620 cells", "experiment": "MTT metabolization, SW620 cell proliferation", "format": "cell-based", "protocol": "as §6, §3, §7"}, "HT29 cells [9]": {"tested_on": "HT29 cells", "experiment": "Cell cycle analysis by flow cytometry (propidium iodide), HT29", "format": "cell-based", "settings": "500 nM, 24 h", "protocol": "as §1, §5"}, "[10]": {"tested_on": "phosphorylated γH2AX in SW620 cells", "experiment": "Western blot of DNA damage marker phosphorylated γH2AX, SW620", "format": "cell-based", "settings": "500 nM, time dependent up to 24 h", "protocol": "as §4"}, "[11]": {"tested_on": "phosphorylated γH2AX in HT29 cells", "experiment": "Western blot of DNA damage marker phosphorylated γH2AX, HT29", "format": "cell-based", "settings": "500 nM, time dependent up to 24 h", "protocol": "as §4"}, "[12]": {"settings": "animal models; background statement; cited from earlier work"}, "[13]": {"tested_on": "pS6, AKT, Src and Lck in SW620 cells", "experiment": "Phospho-kinase dot blot array and Western blot, SW620", "format": "cell-based", "settings": "500 nM, at 6 hours or 12 hours", "protocol": "as §4"}, "[14]": {"settings": "doses in the submicromolar (nanomolar) range"}},
  "note": "pIC50: −log10 of the molar value.",
  "data": [
    {"smiles": "C[C@]12O[C@H](C[C@H](O)[C@H]1O)n1c3ccccc3c3c4c(c5c6ccccc6n2c5c31)C(=O)NC4=O", "note": "[Formula (III)]", "values": [
      {"measurement": "apoptosis (Annexin staining)", "setting": "HT29 cells [1]", "result": "induction of apoptosis"},
      {"measurement": "pIC50", "setting": "[2]", "result": 6.30},
      {"measurement": "phosphorylation/activation status of pS6 and Src", "setting": "[3]", "result": "inhibited"},
      {"measurement": "affinity towards and inhibition of kinase activity", "setting": "[4]", "result": "nanomolar and subnanomolar range"},
      {"measurement": "apoptosis (Annexin staining)", "setting": "SW620 cells [5]", "result": "induction of apoptosis"},
      {"measurement": "effect on cell cycle", "setting": "SW620 cells [6]", "result": "strong arrest in G2/M phase"},
      {"measurement": "half-maximal inhibitory effect (MTT metabolization)", "setting": "HT29 cells [7]", "result": "nanomolar range"},
      {"measurement": "growth inhibition", "setting": "HT29 cells [7]; [14]", "result": "more than 80%"},
      {"measurement": "effect on proliferation compared with other inhibitors", "setting": "HT29 cells [7]; vs lapatinib, sunitinib, crizotinib, BEZ235, NVP-BSK805, dasatinib", "result": "strong effect"},
      {"measurement": "half-maximal inhibitory effect (MTT metabolization)", "setting": "SW620 cells [8]", "result": "nanomolar range"},
      {"measurement": "growth inhibition", "setting": "SW620 cells [8]; [14]", "result": "more than 80%"},
      {"measurement": "effect on proliferation compared with other inhibitors", "setting": "SW620 cells [8]; vs lapatinib, sunitinib, crizotinib, BEZ235, NVP-BSK805, dasatinib, 0 to 2 μM, 72 h", "result": "strong effect"},
      {"measurement": "effect on cell cycle", "setting": "HT29 cells [9]", "result": "strong arrest in G2/M phase"},
      {"measurement": "phosphorylated levels of γH2AX (DNA damage)", "setting": "[10]", "result": "increase in the phosphorylated levels of γH2AX"},
      {"measurement": "phosphorylated levels of γH2AX (DNA damage)", "setting": "[11]", "result": "increase in the phosphorylated levels of γH2AX"},
      {"measurement": "anti-tumoral activity in vivo", "setting": "[12]", "result": "anti-tumoral activity"},
      {"measurement": "toxicities in vivo", "setting": "[12]", "result": "no evidence of toxicities"},
      {"measurement": "phosphorylation/activation status of kinases pS6, AKT, Src and Lck", "setting": "[13]", "result": "strongly inhibited"}
    ]}
  ]
}
